Assay results reported in publication PMC4685510, “A Cell Biologist’s Field Guide to Aurora Kinase Inhibitors” (Frontiers in Oncology, 2015).

Key:
Assay in all cases: biochemical
Format in all cases: biochemical
[1] = biological target: 363 human kinases (including Aurora A/B/C) (Homo sapiens, UniProt O75914); settings: PAK3, read-out: % Enzyme Activity (relative to DMSO controls)
Excerpt: (§1) However, the Aurora A/B selectivity ratios derived from our in vitro and in vivo data can be compared to prioritize inhibitors.

[2] = biological target: 363 human kinases (including Aurora A/B/C) (Homo sapiens, UniProt Q07002); settings: CDK18/cyclin Y (PCTK3), [ATP] 50 µM, read-out: % Enzyme Activity (relative to DMSO controls)
Sequence of 363 human kinases (including Aurora A/B/C) (Homo sapiens, UniProt Q07002) (Q07002 whole entry): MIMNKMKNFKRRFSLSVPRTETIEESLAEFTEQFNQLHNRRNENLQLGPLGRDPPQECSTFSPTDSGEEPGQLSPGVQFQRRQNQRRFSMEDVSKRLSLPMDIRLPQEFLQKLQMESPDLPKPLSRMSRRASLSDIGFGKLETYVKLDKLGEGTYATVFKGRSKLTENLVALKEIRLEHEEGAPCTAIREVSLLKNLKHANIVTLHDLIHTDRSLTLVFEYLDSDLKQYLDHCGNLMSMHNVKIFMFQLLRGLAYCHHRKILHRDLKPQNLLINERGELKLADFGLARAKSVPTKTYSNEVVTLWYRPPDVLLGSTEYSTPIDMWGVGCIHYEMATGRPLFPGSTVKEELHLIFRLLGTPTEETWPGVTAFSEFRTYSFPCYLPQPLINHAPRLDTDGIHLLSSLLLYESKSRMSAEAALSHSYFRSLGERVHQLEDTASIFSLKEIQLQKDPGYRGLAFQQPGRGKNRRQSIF
Excerpt: as §1

[3] = biological target: 363 human kinases (including Aurora A/B/C) (Homo sapiens, UniProt Q8N568); settings: DCAMKL2, [ATP] 100 µM, read-out: % Enzyme Activity (relative to DMSO controls)
Sequence of 363 human kinases (including Aurora A/B/C) (Homo sapiens, UniProt Q8N568) (Q8N568 whole entry): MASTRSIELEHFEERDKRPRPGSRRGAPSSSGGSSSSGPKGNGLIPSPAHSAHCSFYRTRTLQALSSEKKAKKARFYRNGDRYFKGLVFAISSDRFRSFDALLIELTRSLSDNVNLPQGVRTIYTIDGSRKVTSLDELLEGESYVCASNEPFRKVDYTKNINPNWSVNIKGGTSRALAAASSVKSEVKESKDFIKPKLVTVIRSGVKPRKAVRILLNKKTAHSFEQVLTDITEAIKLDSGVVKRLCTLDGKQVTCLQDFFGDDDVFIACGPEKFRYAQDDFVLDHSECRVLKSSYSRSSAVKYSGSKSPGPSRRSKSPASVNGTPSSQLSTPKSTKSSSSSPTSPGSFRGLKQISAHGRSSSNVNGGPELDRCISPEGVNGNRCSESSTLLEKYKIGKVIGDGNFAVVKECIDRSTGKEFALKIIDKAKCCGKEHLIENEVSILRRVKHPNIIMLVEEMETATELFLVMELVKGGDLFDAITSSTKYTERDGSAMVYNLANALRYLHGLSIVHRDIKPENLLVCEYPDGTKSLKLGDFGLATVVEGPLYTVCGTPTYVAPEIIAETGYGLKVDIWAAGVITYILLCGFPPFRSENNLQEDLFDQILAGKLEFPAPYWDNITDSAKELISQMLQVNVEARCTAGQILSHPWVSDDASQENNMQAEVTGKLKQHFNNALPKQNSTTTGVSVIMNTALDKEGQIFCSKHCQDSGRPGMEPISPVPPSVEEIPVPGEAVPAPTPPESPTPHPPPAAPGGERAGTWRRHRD
Excerpt: as §1

[4] = biological target: 363 human kinases (including Aurora A/B/C) (Homo sapiens, UniProt Q9Y4K4); settings: KHS/MAP4K5, read-out: % Enzyme Activity (relative to DMSO controls)
Excerpt: as §1

[5] = biological target: 363 human kinases (including Aurora A/B/C) (Homo sapiens, UniProt Q15208); settings: STK38/NDR1, read-out: % Enzyme Activity (relative to DMSO controls)
Excerpt: as §1

[6] = biological target: T1, 363 human kinases (including Aurora A/B/C) (Homo sapiens, UniProt O15146); settings: MUSK, read-out: % Enzyme Activity (relative to DMSO controls)
T1 sequence (O15146 24-869): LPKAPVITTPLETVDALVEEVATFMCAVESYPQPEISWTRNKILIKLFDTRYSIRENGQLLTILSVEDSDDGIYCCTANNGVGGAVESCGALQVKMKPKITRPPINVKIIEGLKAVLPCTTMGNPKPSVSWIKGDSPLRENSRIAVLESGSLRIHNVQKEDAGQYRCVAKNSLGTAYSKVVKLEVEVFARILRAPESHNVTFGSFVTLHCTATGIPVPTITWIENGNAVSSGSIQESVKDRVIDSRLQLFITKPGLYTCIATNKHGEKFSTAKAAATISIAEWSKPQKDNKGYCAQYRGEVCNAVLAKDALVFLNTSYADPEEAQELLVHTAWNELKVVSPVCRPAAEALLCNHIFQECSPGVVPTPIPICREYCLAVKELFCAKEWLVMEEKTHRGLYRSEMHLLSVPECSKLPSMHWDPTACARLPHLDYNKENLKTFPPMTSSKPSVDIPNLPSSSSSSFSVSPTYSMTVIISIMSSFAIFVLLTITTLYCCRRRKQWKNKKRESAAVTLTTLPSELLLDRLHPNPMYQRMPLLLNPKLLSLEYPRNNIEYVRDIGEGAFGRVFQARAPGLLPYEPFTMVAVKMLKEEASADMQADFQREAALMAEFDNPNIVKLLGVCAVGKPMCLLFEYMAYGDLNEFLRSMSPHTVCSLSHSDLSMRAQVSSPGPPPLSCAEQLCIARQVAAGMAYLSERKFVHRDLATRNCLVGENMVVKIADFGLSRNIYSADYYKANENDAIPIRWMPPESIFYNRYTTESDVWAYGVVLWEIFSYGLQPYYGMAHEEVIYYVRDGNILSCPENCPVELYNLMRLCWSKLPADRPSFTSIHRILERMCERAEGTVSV
Excerpt: as §1

[7] = biological target: 363 human kinases (including Aurora A/B/C) (Homo sapiens, UniProt P07949); settings: RET, read-out: % Enzyme Activity (relative to DMSO controls)
Excerpt: as §1

[8] = biological target: 363 human kinases (including Aurora A/B/C) (Homo sapiens, UniProt P34947); settings: GRK5, read-out: % Enzyme Activity (relative to DMSO controls)
Sequence of 363 human kinases (including Aurora A/B/C) (Homo sapiens, UniProt P34947) (P34947 whole entry): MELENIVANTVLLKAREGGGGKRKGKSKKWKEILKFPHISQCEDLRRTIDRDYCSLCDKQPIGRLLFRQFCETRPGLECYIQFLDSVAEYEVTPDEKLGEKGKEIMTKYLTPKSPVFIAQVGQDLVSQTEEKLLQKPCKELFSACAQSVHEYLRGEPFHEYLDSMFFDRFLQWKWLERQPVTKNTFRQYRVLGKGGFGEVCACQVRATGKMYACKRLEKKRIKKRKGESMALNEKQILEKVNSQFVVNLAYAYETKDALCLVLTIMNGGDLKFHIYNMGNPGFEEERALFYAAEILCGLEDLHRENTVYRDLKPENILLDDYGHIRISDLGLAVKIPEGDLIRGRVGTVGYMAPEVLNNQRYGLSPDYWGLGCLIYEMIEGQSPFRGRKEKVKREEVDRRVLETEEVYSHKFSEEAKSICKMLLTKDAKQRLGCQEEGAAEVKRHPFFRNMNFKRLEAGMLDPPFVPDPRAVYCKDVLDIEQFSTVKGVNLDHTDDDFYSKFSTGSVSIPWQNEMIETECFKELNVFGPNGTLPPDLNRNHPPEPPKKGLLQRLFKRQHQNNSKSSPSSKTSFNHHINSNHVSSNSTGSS
Excerpt: as §1

[9] = biological target: 363 human kinases (including Aurora A/B/C) (Homo sapiens, UniProt Q13557); settings: CAMK2d, [ATP] 30 µM, read-out: % Enzyme Activity (relative to DMSO controls)
Sequence of 363 human kinases (including Aurora A/B/C) (Homo sapiens, UniProt Q13557) (Q13557 whole entry): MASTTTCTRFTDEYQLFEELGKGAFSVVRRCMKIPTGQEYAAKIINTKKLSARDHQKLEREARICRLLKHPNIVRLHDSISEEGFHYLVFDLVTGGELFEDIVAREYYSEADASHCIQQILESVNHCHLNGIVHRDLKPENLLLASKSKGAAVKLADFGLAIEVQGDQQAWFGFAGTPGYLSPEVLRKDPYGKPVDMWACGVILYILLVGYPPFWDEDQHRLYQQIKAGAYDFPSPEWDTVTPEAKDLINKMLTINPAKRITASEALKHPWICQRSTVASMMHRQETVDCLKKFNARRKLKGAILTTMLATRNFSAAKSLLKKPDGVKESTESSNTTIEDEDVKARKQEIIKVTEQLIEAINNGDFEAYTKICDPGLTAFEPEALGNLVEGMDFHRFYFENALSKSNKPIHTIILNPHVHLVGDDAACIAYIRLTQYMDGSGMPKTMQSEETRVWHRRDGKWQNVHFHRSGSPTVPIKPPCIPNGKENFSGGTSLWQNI
Excerpt: as §1

[10] = biological target: 363 human kinases (including Aurora A/B/C) (Homo sapiens, UniProt P12931); settings: c-Src, [ATP] 100 µM, read-out: % Enzyme Activity (relative to DMSO controls)
Sequence of 363 human kinases (including Aurora A/B/C) (Homo sapiens, UniProt P12931) (P12931 whole entry): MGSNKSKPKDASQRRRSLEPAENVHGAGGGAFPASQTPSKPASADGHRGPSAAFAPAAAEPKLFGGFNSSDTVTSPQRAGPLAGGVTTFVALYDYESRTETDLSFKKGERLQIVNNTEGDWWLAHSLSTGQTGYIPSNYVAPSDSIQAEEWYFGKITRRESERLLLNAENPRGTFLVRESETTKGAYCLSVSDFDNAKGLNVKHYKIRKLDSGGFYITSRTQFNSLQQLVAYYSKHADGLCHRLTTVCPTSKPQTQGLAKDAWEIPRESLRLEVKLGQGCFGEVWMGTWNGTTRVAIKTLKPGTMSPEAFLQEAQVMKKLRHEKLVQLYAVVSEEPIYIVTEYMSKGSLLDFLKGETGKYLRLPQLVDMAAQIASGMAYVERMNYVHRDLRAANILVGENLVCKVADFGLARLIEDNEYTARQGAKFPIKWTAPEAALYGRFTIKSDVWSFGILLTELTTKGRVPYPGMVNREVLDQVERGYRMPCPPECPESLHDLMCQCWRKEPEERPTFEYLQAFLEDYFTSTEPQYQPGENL
Excerpt: as §1

[11] = biological target: 363 human kinases (including Aurora A/B/C) (Homo sapiens, UniProt Q16644); settings: MAPKAPK3, read-out: % Enzyme Activity (relative to DMSO controls)
Sequence of 363 human kinases (including Aurora A/B/C) (Homo sapiens, UniProt Q16644) (Q16644 whole entry): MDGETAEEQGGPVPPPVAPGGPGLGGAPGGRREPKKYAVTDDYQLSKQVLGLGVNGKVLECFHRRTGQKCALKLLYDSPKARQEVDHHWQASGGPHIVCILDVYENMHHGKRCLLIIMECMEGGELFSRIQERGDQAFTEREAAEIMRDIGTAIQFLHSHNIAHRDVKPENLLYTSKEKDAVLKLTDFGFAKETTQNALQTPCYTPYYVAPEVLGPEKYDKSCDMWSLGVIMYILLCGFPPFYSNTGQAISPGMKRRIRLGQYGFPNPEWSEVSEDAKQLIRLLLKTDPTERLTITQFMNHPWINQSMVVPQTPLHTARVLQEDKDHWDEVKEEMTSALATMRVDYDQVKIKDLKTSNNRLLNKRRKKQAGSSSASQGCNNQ
Excerpt: as §1

[12] = biological target: T2, 363 human kinases (including Aurora A/B/C) (Homo sapiens, UniProt O14920); settings: IKKb/IKBKB, read-out: % Enzyme Activity (relative to DMSO controls)
T2 sequence (O14920 1-756): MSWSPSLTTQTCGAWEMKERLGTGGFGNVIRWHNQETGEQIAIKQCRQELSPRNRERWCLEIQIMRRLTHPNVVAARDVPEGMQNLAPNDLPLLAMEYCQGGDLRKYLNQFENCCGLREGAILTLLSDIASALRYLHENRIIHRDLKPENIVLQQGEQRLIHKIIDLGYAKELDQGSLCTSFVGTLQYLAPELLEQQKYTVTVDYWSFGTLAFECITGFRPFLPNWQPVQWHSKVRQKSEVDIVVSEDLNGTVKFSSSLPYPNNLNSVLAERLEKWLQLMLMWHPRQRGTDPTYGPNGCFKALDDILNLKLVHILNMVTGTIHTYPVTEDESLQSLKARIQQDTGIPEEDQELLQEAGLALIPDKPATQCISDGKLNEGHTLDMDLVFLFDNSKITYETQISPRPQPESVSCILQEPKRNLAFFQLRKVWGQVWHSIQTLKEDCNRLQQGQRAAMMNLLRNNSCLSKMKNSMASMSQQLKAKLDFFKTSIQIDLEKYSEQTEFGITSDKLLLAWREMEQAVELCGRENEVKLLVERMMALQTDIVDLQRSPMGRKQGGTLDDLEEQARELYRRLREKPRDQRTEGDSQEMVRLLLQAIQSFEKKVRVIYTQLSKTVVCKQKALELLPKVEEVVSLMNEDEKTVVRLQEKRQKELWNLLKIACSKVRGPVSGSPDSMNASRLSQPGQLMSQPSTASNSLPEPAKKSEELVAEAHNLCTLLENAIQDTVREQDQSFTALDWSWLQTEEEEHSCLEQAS
Excerpt: as §1

[13] = biological target: 363 human kinases (including Aurora A/B/C) (Homo sapiens, UniProt Q9P1W9); settings: PIM2, read-out: % Enzyme Activity (relative to DMSO controls)
Sequence of 363 human kinases (including Aurora A/B/C) (Homo sapiens, UniProt Q9P1W9) (Q9P1W9 whole entry): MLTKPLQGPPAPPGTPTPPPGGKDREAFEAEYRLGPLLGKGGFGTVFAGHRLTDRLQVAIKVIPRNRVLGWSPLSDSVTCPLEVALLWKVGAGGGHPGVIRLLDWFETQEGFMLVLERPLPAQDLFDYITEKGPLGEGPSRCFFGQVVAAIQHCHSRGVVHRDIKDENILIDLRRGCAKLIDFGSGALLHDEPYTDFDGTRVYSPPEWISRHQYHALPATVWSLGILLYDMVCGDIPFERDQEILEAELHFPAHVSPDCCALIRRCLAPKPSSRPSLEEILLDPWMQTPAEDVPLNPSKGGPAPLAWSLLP
Excerpt: as §1

[14] = biological target: 363 human kinases (including Aurora A/B/C) (Homo sapiens, UniProt P07947); settings: YES/YES1, read-out: % Enzyme Activity (relative to DMSO controls)
Sequence of 363 human kinases (including Aurora A/B/C) (Homo sapiens, UniProt P07947) (P07947 whole entry): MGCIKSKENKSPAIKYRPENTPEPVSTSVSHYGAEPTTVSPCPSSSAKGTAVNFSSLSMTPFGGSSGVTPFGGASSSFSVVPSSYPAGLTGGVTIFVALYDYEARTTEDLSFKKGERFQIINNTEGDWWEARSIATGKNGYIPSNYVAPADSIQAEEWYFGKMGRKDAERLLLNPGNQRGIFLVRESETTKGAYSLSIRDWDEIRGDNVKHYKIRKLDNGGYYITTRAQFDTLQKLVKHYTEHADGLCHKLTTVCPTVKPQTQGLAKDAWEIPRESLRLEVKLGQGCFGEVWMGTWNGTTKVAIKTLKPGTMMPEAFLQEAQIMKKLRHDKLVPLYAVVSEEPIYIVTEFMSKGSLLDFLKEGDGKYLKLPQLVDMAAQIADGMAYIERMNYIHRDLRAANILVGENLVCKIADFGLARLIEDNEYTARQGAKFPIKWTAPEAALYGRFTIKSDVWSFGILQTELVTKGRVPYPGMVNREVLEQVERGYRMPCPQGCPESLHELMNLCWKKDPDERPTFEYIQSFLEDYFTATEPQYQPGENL
Excerpt: as §1

[15] = biological target: 363 human kinases (including Aurora A/B/C) (Homo sapiens, UniProt Q96GD4); settings: read-out: % Enzyme Activity (relative to DMSO controls)
Excerpt: as §1

Sequence of 363 human kinases (including Aurora A/B/C) (Homo sapiens, UniProt O75914) (O75914 whole entry): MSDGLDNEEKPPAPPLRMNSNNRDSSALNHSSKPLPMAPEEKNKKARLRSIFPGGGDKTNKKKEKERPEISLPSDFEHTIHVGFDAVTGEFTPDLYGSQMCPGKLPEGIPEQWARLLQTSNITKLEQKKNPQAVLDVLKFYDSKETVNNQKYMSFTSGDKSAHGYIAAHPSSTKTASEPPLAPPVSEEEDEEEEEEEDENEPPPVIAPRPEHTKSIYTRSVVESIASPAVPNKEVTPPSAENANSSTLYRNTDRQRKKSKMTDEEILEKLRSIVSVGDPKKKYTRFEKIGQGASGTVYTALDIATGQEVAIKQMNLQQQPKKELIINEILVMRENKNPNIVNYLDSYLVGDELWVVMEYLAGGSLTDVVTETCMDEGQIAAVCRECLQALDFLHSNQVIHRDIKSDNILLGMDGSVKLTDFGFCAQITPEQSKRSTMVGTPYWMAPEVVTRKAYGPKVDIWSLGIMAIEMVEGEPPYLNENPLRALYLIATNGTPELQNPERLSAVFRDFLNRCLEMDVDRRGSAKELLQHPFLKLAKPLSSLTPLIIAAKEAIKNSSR

O=C(O)[C@]1(Cc2cccc(Nc3nccs3)n2)CC[C@@H](Oc2cccc(Cl)c2F)CC1 [MK-5108]
remaining activity at 0.1 µM ([1]; 100 nM): 92.3%
remaining activity at 0.5 µM ([1]; 500 nM): 88.8%
remaining activity at 0.1 µM ([2]; 100 nM): 85.9%
remaining activity at 0.5 µM ([2]; 500 nM): 108%
remaining activity at 0.1 µM ([3]; 100 nM): 98.2%
remaining activity at 0.5 µM ([3]; 500 nM): 96.3%
remaining activity at 0.1 µM ([4]; 100 nM): 96.2%
remaining activity at 0.5 µM ([4]; 500 nM): 92.4%
remaining activity at 0.1 µM ([5]; 100 nM): 96%
remaining activity at 0.5 µM ([5]; 500 nM): 86.5%
remaining activity at 0.1 µM ([6]; 100 nM): 104%
remaining activity at 0.5 µM ([6]; 500 nM): 71.9%
remaining activity at 0.1 µM ([7]; 100 nM): 17.4%
remaining activity at 0.5 µM ([7]; 500 nM): 3.79%
remaining activity at 0.1 µM ([8]; 100 nM): 102%
remaining activity at 0.5 µM ([8]; 500 nM): 90.9%
remaining activity at 0.1 µM ([9]; 100 nM): 101%
remaining activity at 0.5 µM ([9]; 500 nM): 98.6%
remaining activity at 0.1 µM ([10]; 100 nM): 39.2%
remaining activity at 0.5 µM ([10]; 500 nM): 12.5%
remaining activity at 0.1 µM ([11]; 100 nM): 99.7%
remaining activity at 0.5 µM ([11]; 500 nM): 84.9%
remaining activity at 0.1 µM ([12]; 100 nM): 103%
remaining activity at 0.5 µM ([12]; 500 nM): 128%
remaining activity at 0.1 µM ([13]; 100 nM): 104%
remaining activity at 0.5 µM ([13]; 500 nM): 88.5%
remaining activity at 0.1 µM ([14]; 100 nM): 31.3%
remaining activity at 0.5 µM ([14]; 500 nM): 9.25%
remaining activity at 0.1 µM [15]: 9.6%
remaining activity at 0.5 µM [15]: 2.85%
